# Laboratory results published in patent US12195466B2, “Polyproline mimetics of proline-derived module-15” (Forschungsverbund Berlin e.V., priority 2018, dated 2025).
# Columns and labels:
# EnaH-EVH1 domain [1] = target: T1, EnaH-EVH1 domain (Homo sapiens (Human), UniProt Q8N8S7); test: Binding affinity to the EnaH-EVH1 domain by fluorescence titration (FT); settings: for Kd / FT ΔG^0 (free energy): EnaH-EVH1 domain
# Description: (§1) The binding data of the ligands to the domain was determined by means of isothermal titration calorimetry (ITC) or fluorescence titration (FT) and presented in the form of the dissociation constant (Kd) or the free energy (AGO). A stronger binding of the ligand to the domain is expressed by a smaller Kd value or a correspondingly more negative AGO value. The relationship between the two parameters is shown in equation (a): […]
# Metabolic stability = type: in vitro ADME; settings: comparison among derivatives 44, 242 and 113
# Cell permeability = type: in vitro ADME; settings: comparison among derivatives 44, 242 and 113
# [2] = esterification of the free acid 43; cited from earlier work
# [3] = test system: highly metastatic colorectal and breast cancer cells; settings: cited from earlier work
# VASP = VASP (Homo sapiens (Human), UniProt P50552); settings: cited from earlier work
# Sequence of VASP (P50552 whole entry, species assumed, the tested form may be a part): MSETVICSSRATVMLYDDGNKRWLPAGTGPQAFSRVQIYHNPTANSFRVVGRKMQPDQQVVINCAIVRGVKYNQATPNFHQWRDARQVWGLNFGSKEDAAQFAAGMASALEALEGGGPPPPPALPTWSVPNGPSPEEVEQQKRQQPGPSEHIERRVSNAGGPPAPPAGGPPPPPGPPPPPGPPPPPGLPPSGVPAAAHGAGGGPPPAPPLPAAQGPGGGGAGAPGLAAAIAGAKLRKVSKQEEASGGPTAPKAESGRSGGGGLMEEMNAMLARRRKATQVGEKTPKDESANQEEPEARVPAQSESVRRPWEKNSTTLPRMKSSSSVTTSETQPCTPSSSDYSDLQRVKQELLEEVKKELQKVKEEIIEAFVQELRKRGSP
# EnaH-EVH1 domain [4] = target: T1, EnaH-EVH1 domain; test: Binding affinity to the EnaH-EVH1 domain by isothermal titration calorimetry (ITC); settings: standard errors in brackets
# Description: as §1
# Ena/VASP-EVH1 domain = settings: cited from earlier work
# EVL-EVH1 = EVL-EVH1 (Homo sapiens (Human), UniProt Q9UI08); settings: cited from earlier work
# Sequence of EVL-EVH1 (Q9UI08 1-112): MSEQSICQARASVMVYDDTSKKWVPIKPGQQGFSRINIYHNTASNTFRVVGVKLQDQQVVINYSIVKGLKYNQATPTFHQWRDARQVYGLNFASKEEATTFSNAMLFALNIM
# VASP-EVH1 = VASP-EVH1 (Homo sapiens (Human), UniProt P50552); settings: cited from earlier work
# Sequence of VASP-EVH1 (P50552 2-113): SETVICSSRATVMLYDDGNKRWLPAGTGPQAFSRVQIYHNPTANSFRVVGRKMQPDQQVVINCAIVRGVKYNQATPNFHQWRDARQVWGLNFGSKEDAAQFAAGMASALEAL
# Ena-EVH1 = Ena-EVH1 (Homo sapiens (Human), UniProt Q8N8S7); settings: cited from earlier work
# Sequence of Ena-EVH1 (Q8N8S7 1-111): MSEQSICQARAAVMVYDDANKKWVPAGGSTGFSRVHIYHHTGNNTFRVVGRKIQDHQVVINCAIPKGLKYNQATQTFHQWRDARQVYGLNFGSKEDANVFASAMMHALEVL
# [5] = fluorescence titration, Table 3, read-out: KD
# T1 sequence (Q8N8S7 1-111): as above
molecule,measurement,setting,value
CC[C@@H]1C=C[C@H]2CCN(C(=O)[C@@H]3CC[C@@H]4C=C[C@H]5CCN(C(=O)[C@H](Cc6ccccc6Cl)NC(C)=O)[C@@H]5C(=O)N43)[C@@H]2C(=O)N1CC(=O)OC [Ac-[2Cl-Phe]-[ProM-1]-[ProM-15]-OMe],Kd,EnaH-EVH1 domain [1]; [5],900 nM
COC(=O)CN1C(=O)[C@@H]2[C@@H](C=C[C@H]1CC(C)C)CCN2C(=O)[C@@H]1CC[C@@H]2C=C[C@H]3CCN(C(=O)[C@H](Cc4ccccc4Cl)NC(C)=O)[C@@H]3C(=O)N21 [Ac-[2Cl-Phe]-[ProM-1]-[ProM-17]-OMe],Kd,EnaH-EVH1 domain [1]; [5],2200 nM
CCC[C@@H]1C=C[C@H]2CCN(C(=O)[C@@H]3CC[C@@H]4C=C[C@H]5CCN(C(=O)[C@H](Cc6ccccc6Cl)NC(C)=O)[C@@H]5C(=O)N43)[C@@H]2C(=O)N1CC(=O)OC [Ac-[2Cl-Phe]-[ProM-1]-[ProM-21]-OMe],Kd,EnaH-EVH1 domain [1]; [5],2100 nM
COC(=O)CN1C(=O)[C@@H]2[C@@H](C=C[C@H]1CC(C)C)CCN2C(=O)[C@@H]1CC[C@H]2C=C[C@]3(CCCN3C(=O)[C@H](Cc3ccccc3Cl)NC(C)=O)C(=O)N21 [Ac-[2Cl-Phe]-[ProM-2]-[ProM-17]-OMe],Kd,EnaH-EVH1 domain [1]; [5],540 nM
CCC[C@@H]1C=C[C@H]2CCN(C(=O)[C@@H]3CC[C@H]4C=C[C@]5(CCCN5C(=O)[C@H](Cc5ccccc5Cl)NC(C)=O)C(=O)N43)[C@@H]2C(=O)N1CC(=O)OC [Ac-[2Cl-Phe]-[ProM-2]-[ProM-21]-OMe],Kd,EnaH-EVH1 domain [1]; [5],260 nM
"CCOC(=O)[C@@H]1CC[C@@H]2C=C[C@H]3CCN(C(=O)[C@@H]4CC[C@H]5C=C[C@]6(CCCN6C(=O)[C@H](Cc6ccccc6Cl)NC(C)=O)C(=O)N54)[C@@H]3C(=O)N21 [Ligand 44, Ac-[L-2Cl—F]-[ProM-2]-[ProM-1]-OEt, reference compound]",metabolic stabilities,Metabolic stability,almost identical
same,cell permeabilities,Cell permeability,almost identical
same,cell permeability,[2],cell-permeable
same,FT ΔG^0 (free energy),EnaH-EVH1 domain [1]; standard errors in brackets,−30.8 (0.2) kJ/mol
same,motility of cancer cells,[3],drastically reduces the motility
same,delocalization of VASP from focal adhesions and leading edge,VASP,delocalizes the protein VASP from focal adhesions
"CC(=O)N[C@@H](Cc1ccccc1Cl)C(=O)N1CCC[C@]12C=C[C@@H]1CC[C@@H](C(=O)N3CC[C@@H]4C=C[C@H]5CC[C@@H](C(N)=O)N5C(=O)[C@H]43)N1C2=O [Ligand 113, Ac-[L-2Cl—F]-[ProM-2]-[ProM-1]-NH2]",metabolic stabilities,Metabolic stability,almost identical
same,cell permeabilities,Cell permeability,almost identical
same,Kd,EnaH-EVH1 domain [4],7000 nM
"COC(=O)[C@@H]1CC[C@@H]2C=C[C@H]3CCN(C(=O)[C@@H]4CC[C@H]5C=C[C@]6(CCCN6C(=O)[C@H](Cc6ccccc6Cl)NC(C)=O)C(=O)N54)[C@@H]3C(=O)N21 [Ligand 242, Ac-[L-2Cl—F]-[ProM-2]-[ProM-1]-OMe]",metabolic stabilities,Metabolic stability,almost identical
same,cell permeabilities,Cell permeability,almost identical
same,FT ΔG^0 (free energy),EnaH-EVH1 domain [1]; standard errors in brackets,−30.6 (0.4) kJ/mol
"CC[C@@H]1C=C[C@H]2CCN(C(=O)[C@@H]3CC[C@H]4C=C[C@]5(CCCN5C(=O)[C@H](Cc5ccccc5Cl)NC(C)=O)C(=O)N43)[C@@H]2C(=O)N1CC(=O)OC [Ligand 247, Ac-[L-2Cl—F]-[ProM-2]-[R,S,R-Gly-ProM-15]-OMe]",Kd,EnaH-EVH1 domain [1]; [5],470 nM
same,FT ΔG^0 (free energy),EnaH-EVH1 domain [1]; standard errors in brackets,−36.1 (0.1) kJ/mol
same,Kd,"EnaH-EVH1 domain [1]; standard errors in brackets, read-out: FT Kd",470 nM
same,gain in affinity by a factor,EnaH-EVH1 domain [1]; compared with the ProM-1-based predecessor ligands 44 and 242,9-10
"CCOC(=O)[C@@H]1C[C@@H](C)[C@@H]2C=C[C@H]3CCN(C(=O)[C@@H]4CC[C@H]5C=C[C@]6(CCCN6C(=O)[C@H](Cc6ccccc6Cl)NC(C)=O)C(=O)N54)[C@@H]3C(=O)N12 [Ligand 251, Ac-[L-2Cl—F]-[ProM-2]-[ProM-9]-OEt, reference compound]",FT ΔG^0 (free energy),EnaH-EVH1 domain [1]; standard errors in brackets,−36.6 (0.3) kJ/mol
Ac-SFEFPPPPTEDEL-NH2 [Ligand 40],binding to the Ena/VASP-EVH1 domain (range in words),Ena/VASP-EVH1 domain,micromolar range
Ac-[L-2CI-F]-[ProM-2]-[ProM-1]-OH [Ligand 43],increased binding affinity compared to the natural peptide 42,EVL-EVH1,180 fold
same,increased binding affinity compared to the natural peptide 42,VASP-EVH1,280 fold
same,increased binding affinity compared to the natural peptide 42,Ena-EVH1,180 fold
